PMC8182759, “Cryo-Electron Microscopy of Arabidopsis thaliana Phytochrome A in Its Pr State Reveals Head-to-Head Homodimeric Architecture” (Frontiers in Plant Science, 2021)

T1: AtphyA (Arabidopsis thaliana phytochrome A, full length) (Arabidopsis thaliana, UniProt P14712)
T1 construct: gene PHYA; full length, residues 1-1122, C-terminal hexahistidine tag kept; E. coli BL21(DE3) LOBSTR, plasmid pDG388 co-expressing Synechocystis heme oxygenase and PcyA; homodimer (dimer/monomer mixture at pH 9.3)
T1 sequence (P14712 1-1122): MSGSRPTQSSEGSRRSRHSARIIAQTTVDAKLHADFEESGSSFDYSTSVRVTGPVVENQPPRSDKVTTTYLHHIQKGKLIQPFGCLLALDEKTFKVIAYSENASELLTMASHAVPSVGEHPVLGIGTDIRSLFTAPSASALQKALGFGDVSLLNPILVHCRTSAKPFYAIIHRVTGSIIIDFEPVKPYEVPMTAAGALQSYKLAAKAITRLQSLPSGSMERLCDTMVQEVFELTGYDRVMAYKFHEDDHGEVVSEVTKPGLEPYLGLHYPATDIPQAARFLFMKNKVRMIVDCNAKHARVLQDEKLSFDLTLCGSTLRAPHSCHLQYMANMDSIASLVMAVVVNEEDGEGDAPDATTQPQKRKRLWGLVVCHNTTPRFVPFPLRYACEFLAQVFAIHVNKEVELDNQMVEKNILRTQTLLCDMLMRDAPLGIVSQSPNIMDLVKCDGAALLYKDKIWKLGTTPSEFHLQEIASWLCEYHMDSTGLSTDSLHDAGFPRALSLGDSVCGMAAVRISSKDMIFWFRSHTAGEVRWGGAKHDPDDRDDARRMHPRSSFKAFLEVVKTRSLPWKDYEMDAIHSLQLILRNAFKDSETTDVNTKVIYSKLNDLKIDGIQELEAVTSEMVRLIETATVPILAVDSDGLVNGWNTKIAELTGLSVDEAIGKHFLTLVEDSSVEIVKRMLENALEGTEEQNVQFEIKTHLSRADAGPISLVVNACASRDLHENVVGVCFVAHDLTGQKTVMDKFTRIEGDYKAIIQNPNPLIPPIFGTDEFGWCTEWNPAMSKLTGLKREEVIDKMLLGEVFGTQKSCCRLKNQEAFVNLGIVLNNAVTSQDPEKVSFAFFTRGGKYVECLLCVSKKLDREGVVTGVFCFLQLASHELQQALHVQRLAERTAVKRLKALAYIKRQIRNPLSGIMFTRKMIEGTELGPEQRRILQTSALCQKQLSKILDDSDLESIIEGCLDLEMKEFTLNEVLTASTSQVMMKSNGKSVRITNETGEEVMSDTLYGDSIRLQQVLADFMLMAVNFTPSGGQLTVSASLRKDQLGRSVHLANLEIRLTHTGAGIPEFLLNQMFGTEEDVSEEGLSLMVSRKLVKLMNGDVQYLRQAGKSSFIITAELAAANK


Tests used:
[1] = target: T1, AtphyA (Arabidopsis thaliana phytochrome A, full length); test: zinc-induced bilin fluorescence on denaturing gel; UV/vis absorbance and photoconversion; assay type: binding; details: covalent; bilin attached to a cysteine of the GAF domain; assembled during co-expression in E. coli with heme oxygenase/PcyA; purified at pH 8.0
[2] = target: the molecule itself; test: cryo-EM structure; single-particle cryo-EM of AtphyA purified at pH 9.3, Pr state (730 nm pre-illumination), 1-1.5 mg/ml, 136,173 particles, refinement with 2-fold symmetry, ~17 Å

Molecule	zinc-induced bilin fluorescence on denaturing gel; UV/vis absorbance and photoco [1]	stoichiometry N [2]
C/C=C1/C(=C/c2[nH]c(/C=C3N=C(/C=C4\NC(=O)C(CC)=C4C)C(C)=C\3CCC(=O)O)c(CCC(=O)O)c2C)NC(=O)[C@@H]1C [phycocyanobilin]	full-length AtphyA could be obtained with covalently attached PCB, as detected by zinc-induced bilin fluorescence	
Arabidopsis thaliana phytochrome A (receptor, UniProt P14712 1-1122, looked up, covalently attached phycocyanobilin (PCB) chromophore, Studied in the Pr state after 730 nm illumination; A plasmid map of pDG388 is in the Supplementary Material; No removal of the His tag is described; also called AtphyA; phyA; source: E. coli BL21(DE3) LOBSTR, purified (Ni-NTA IMAC, SEC), coexpressed with Synechocystis sp. heme oxygenase and PcyA) MSGSRPTQSSEGSRRSRHSARIIAQTTVDAKLHADFEESGSSFDYSTSVRVTGPVVENQPPRSDKVTTTYLHHIQKGKLIQPFGCLLALDEKTFKVIAYSENASELLTMASHAVPSVGEHPVLGIGTDIRSLFTAPSASALQKALGFGDVSLLNPILVHCRTSAKPFYAIIHRVTGSIIIDFEPVKPYEVPMTAAGALQSYKLAAKAITRLQSLPSGSMERLCDTMVQEVFELTGYDRVMAYKFHEDDHGEVVSEVTKPGLEPYLGLHYPATDIPQAARFLFMKNKVRMIVDCNAKHARVLQDEKLSFDLTLCGSTLRAPHSCHLQYMANMDSIASLVMAVVVNEEDGEGDAPDATTQPQKRKRLWGLVVCHNTTPRFVPFPLRYACEFLAQVFAIHVNKEVELDNQMVEKNILRTQTLLCDMLMRDAPLGIVSQSPNIMDLVKCDGAALLYKDKIWKLGTTPSEFHLQEIASWLCEYHMDSTGLSTDSLHDAGFPRALSLGDSVCGMAAVRISSKDMIFWFRSHTAGEVRWGGAKHDPDDRDDARRMHPRSSFKAFLEVVKTRSLPWKDYEMDAIHSLQLILRNAFKDSETTDVNTKVIYSKLNDLKIDGIQELEAVTSEMVRLIETATVPILAVDSDGLVNGWNTKIAELTGLSVDEAIGKHFLTLVEDSSVEIVKRMLENALEGTEEQNVQFEIKTHLSRADAGPISLVVNACASRDLHENVVGVCFVAHDLTGQKTVMDKFTRIEGDYKAIIQNPNPLIPPIFGTDEFGWCTEWNPAMSKLTGLKREEVIDKMLLGEVFGTQKSCCRLKNQEAFVNLGIVLNNAVTSQDPEKVSFAFFTRGGKYVECLLCVSKKLDREGVVTGVFCFLQLASHELQQALHVQRLAERTAVKRLKALAYIKRQIRNPLSGIMFTRKMIEGTELGPEQRRILQTSALCQKQLSKILDDSDLESIIEGCLDLEMKEFTLNEVLTASTSQVMMKSNGKSVRITNETGEEVMSDTLYGDSIRLQQVLADFMLMAVNFTPSGGQLTVSASLRKDQLGRSVHLANLEIRLTHTGAGIPEFLLNQMFGTEEDVSEEGLSLMVSRKLVKLMNGDVQYLRQAGKSSFIITAELAAANK		2
